What was measured:
Yellow fever virus (YFV) [1] = experiment: microbe, parasite or virus in culture; conditions: Huh-7
TCRV [2] = experiment: microbe, parasite or virus in culture; conditions: Mammarenavirus tacaribeense, Vero C1008
[3] = tested on: Rift Valley fever virus (RVFV); experiment: microbe, parasite or virus in culture; conditions: Vero 76
Powassan virus (POWV) [4] = conditions: POWV; SI = CC50/EC50
poliovirus-1 (POV-1) [5] = tested on: poliovirus-1 (POV-1)
Influenza B [6] = experiment: microbe, parasite or virus in culture; conditions: MDCK
in vitro [7] = conditions: African green monkey
in vitro [8] = conditions: Syrian hamster
[9] = tested on: Rift Valley fever virus (RVFV)
influenza A(H5N1) [10] = tested on: influenza A(H5N1)
SARS-CoV [11] = experiment: microbe, parasite or virus in culture; conditions: Severe acute respiratory syndrome coronavirus, Vero 76
dengue virus-2 (DV-2) [12] = experiment: microbe, parasite or virus in culture; conditions: Huh-7
Influenza B [13] = tested on: Influenza B
adenovirus-5 (Ad5) [14] = tested on: adenovirus-5 (Ad5)
[15] = tested on: Venezuelan equine encephalitis virus (VEEV); experiment: microbe, parasite or virus in culture; conditions: Vero 76
[16] = tested on: Japanese encephalitis virus (JEV)
Zika virus [17] = tested on: Zika virus
RSV [18] = tested on: RSV
RSV [19] = experiment: microbe, parasite or virus in culture; conditions: human respiratory syncytial virus, MA104
West Nile virus (WNV) [20] = tested on: West Nile virus (WNV)
SARS-CoV-2 [21] = conditions: SARS-CoV-2; SI = CC50/EC50
[22] = tested on: Venezuelan equine encephalitis virus (VEEV)
Powassan virus (POWV) [23] = experiment: microbe, parasite or virus in culture; conditions: BHK-21
enterovirus-68 (EV-68) [24] = tested on: enterovirus-68 (EV-68)
TCRV [25] = tested on: TCRV
in vitro [26] = conditions: human
poliovirus-1 (POV-1) [27] = experiment: organism not typed; conditions: Vero 76
dengue virus-2 (DV-2) [28] = conditions: DV-2; SI = CC50/EC50
influenza A(H1N1) [29] = experiment: microbe, parasite or virus in culture; conditions: H1N1, MDCK
SARS-CoV-2 [30] = experiment: microbe, parasite or virus in culture; conditions: Severe acute respiratory syndrome coronavirus 2, Vero 76
[31] = tested on: Japanese encephalitis virus (JEV); experiment: microbe, parasite or virus in culture; conditions: Vero 76
SARS-CoV [32] = tested on: SARS-CoV
influenza A(H5N1) [33] = experiment: microbe, parasite or virus in culture; conditions: H5N1, MDCK
West Nile virus (WNV) [34] = experiment: microbe, parasite or virus in culture; conditions: Vero 76
enterovirus-68 (EV-68) [35] = experiment: organism not typed; conditions: RD
influenza A(H1N1) [36] = tested on: influenza A(H1N1)
adenovirus-5 (Ad5) [37] = experiment: organism not typed; conditions: A549
Yellow fever virus (YFV) [38] = tested on: Yellow fever virus (YFV)
Zika virus [39] = experiment: microbe, parasite or virus in culture; conditions: Vero 76
HFF cells = experiment: Cell proliferation assay, human foreskin fibroblast (HFF) cells; assay type: cell-based; conditions: 72 h, cell number
JC virus (JCV) [40] = tested on: JC virus (JCV)
[41] = tested on: BK virus (BKV), Gardner strain
JC virus (JCV) [42] = experiment: Secondary JCV assay (qPCR), COS7 cells; conditions: secondary JCV assay, COS7 cells; for EC50 / EC90: 7 days, qPCR, test drug concentration 0.001-100 μM; for Activity: class by SI50
[43] = tested on: Human cytomegalovirus (HCMV), strain AD169; conditions: for EC50 / EC90: drug concentration 0.048-150 μM
HCMV AD169 = experiment: HCMV plaque reduction assay, MRC-5 cells, strain AD169; assay type: cell-based, Human cytomegalovirus; conditions: hCMV AD169, MRC5 cells, plaque assay, 6-days duration
[44] = molecular target: T1, Inosine-5′-Monophosphate Dehydrogenase 2 (IMPDH2) (Homo sapiens, UniProt P12268); experiment: IMPDH inhibitor screening assay (BioVision kit); assay type: biochemical; conditions: IMPDH activity, colorimetric OD 450 nm
T1 construct: purchased BioVision (California, USA)

[45] = molecular target: T2, SARS-Cov2 RdRp (nsp12-nsp7-nsp8) (Severe acute respiratory syndrome coronavirus 2, UniProt P0DTD1); assay type: biochemical; conditions: primer extension; analog at 100 uM, printed 100 mM
[46] = molecular target: mitochondrial DNA polymerase (POLG1) (Homo sapiens, UniProt P54098); experiment: Inhibition of mitochondrial DNA polymerase (POLG1)
Chain of mitochondrial DNA polymerase (POLG1) (P54098 whole entry): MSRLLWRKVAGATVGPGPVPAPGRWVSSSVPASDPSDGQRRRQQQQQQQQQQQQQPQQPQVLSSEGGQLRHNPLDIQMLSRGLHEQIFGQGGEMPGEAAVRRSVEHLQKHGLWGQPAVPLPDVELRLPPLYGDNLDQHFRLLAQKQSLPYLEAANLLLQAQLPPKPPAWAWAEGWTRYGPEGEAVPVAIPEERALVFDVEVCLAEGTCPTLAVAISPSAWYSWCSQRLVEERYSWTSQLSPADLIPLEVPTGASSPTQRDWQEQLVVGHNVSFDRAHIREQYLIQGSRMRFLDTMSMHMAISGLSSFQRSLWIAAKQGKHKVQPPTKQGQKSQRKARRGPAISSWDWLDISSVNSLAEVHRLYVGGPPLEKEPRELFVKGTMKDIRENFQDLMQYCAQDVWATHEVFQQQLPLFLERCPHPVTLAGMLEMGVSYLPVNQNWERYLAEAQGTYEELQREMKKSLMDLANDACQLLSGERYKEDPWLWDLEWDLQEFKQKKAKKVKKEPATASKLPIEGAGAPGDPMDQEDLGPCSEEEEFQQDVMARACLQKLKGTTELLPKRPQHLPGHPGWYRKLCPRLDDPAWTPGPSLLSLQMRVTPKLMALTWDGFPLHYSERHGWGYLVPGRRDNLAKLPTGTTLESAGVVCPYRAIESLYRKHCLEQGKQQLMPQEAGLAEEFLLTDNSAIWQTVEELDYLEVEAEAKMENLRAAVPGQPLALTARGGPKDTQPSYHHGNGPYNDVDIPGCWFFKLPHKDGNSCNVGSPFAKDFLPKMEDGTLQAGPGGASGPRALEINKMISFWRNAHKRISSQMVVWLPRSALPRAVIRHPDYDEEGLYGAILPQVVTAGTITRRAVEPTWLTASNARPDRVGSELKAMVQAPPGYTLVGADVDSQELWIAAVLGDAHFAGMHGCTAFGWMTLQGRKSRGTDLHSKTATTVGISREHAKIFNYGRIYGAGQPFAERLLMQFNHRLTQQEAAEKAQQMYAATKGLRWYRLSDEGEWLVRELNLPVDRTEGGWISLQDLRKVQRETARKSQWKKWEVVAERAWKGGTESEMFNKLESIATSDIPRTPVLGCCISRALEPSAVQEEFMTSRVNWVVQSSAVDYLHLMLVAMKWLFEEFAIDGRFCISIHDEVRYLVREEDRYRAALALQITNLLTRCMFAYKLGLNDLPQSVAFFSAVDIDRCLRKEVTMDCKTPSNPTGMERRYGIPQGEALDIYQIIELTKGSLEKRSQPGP

[47] = molecular target: T2, SARS-Cov2 RdRp (nsp12-nsp7-nsp8); assay type: biochemical; conditions: after addition of GTP and CTP (third and fourth nucleotides)
[48] = Vero 76 cells without virus, test compounds

Compound: Nc1ccn([C@@H]2OC(CO)=C[C@H]2O)c(=O)n1 [AB21650, 3′-deoxy-3′,4′-didehydro cytidine]
- EC50 (Yellow fever virus (YFV) [1]): > 2000 µM
- EC50 (TCRV [2]): > 2000 µM
- EC50 [3]: > 2000 µM
- SI (Powassan virus (POWV) [4]): 0
- SI (poliovirus-1 (POV-1) [5]; POV-1, SI = CC50/EC50): 0
- CC50 (poliovirus-1 (POV-1) [5]; [48]): > 2000 µM
- EC50 (Influenza B [6]): > 2000 µM
- CC50 (in vitro [7]): > 2000 µM
- CC50 (in vitro [8]): > 2000 µM
- SI ([9]; RVFV, SI = CC50/EC50): 0
- CC50 [9, 48]: > 2000 µM
- CC50 (influenza A(H5N1) [10]; MDCK cells without virus, test compounds): > 2000 µM
- SI (influenza A(H5N1) [10]; influenza A(H5N1), SI = CC50/EC50): 0
- EC50 (SARS-CoV [11]): > 2000 µM
- EC50 (dengue virus-2 (DV-2) [12]): > 2000 µM
- SI (Influenza B [13]): 0
- CC50 (Influenza B [13]; dog): > 2000 µM
- SI (adenovirus-5 (Ad5) [14]; Ad5, SI = CC50/EC50): 0
- CC50 (adenovirus-5 (Ad5) [14]; human): > 2000 µM
- EC50 [15]: > 2000 µM
- CC50 ([16]; African green monkey): > 2000 µM
- SI ([16]; JEV, SI = CC50/EC50): 0
- CC50 (Zika virus [17]; African green monkey): > 2000 µM
- SI (Zika virus [17]; Zika, SI = CC50/EC50): 0
- CC50 (RSV [18]; African green monkey): > 2000 µM
- SI (RSV [18]; RSV, SI = CC50/EC50): 0
- EC50 (RSV [19]): > 2000 µM
- CC50 (West Nile virus (WNV) [20]; African green monkey): > 2000 µM
- SI (West Nile virus (WNV) [20]; WNV, SI = CC50/EC50): 0
- SI (SARS-CoV-2 [21]): 0
- SI ([22]; VEEV, SI = CC50/EC50): 0
- CC50 [22, 48]: > 2000 µM
- EC50 (Powassan virus (POWV) [23]): > 2000 µM
- SI (enterovirus-68 (EV-68) [24]; EV-68, SI = CC50/EC50): 2
- CC50 (enterovirus-68 (EV-68) [24]; human): 1800 µM
- CC50 (TCRV [25]; African green monkey): > 2000 µM
- SI (TCRV [25]; TCRV, SI = CC50/EC50): 0
- CC50 (in vitro [26]): > 2000 µM
- EC50 (poliovirus-1 (POV-1) [27]): > 2000 µM
- SI (dengue virus-2 (DV-2) [28]): 0
- EC50 (influenza A(H1N1) [29]): > 2000 µM
- EC50 (SARS-CoV-2 [30]): > 2000 µM
- EC50 [31]: > 2000 µM
- SI (SARS-CoV [32]; SARS-CoV, SI = CC50/EC50): 0
- CC50 (SARS-CoV [32]; [48]): > 2000 µM
- EC50 (influenza A(H5N1) [33]): > 2000 µM
- EC50 (West Nile virus (WNV) [34]): > 2000 µM
- EC50 (enterovirus-68 (EV-68) [35]): 910 µM
- SI (influenza A(H1N1) [36]; H1N1): 0
- CC50 (influenza A(H1N1) [36]; dog): > 2000 µM
- EC50 (adenovirus-5 (Ad5) [37]): > 2000 µM
- CC50 (Yellow fever virus (YFV) [38]; Huh7 cells without virus, test compounds): > 2000 µM
- SI (Yellow fever virus (YFV) [38]; YFV, SI = CC50/EC50): 0
- EC50 (Zika virus [39]): > 2000 µM

Compound: CCC(CC)COC(=O)[C@H](C)N[P@](=O)(OCC1=CC(O)C(n2ccc(=O)[nH]c2=O)O1)Oc1ccccc1 (stereo partly drawn) [AB23031]
- IC50 (HFF cells): > 100 µM
- CC50 (JC virus (JCV) [40]): > 100 µM
- Activity [41]: HI (key: NA (Not Active) SI50 = 0-3.9; LO (Slightly Active) SI50 = 4-9.9; MOD (Moderately Active) SI50 = 10-19.9; HI (Highly Active) SI50 = ≥20)
- CC50 [41]: > 150 µM
- EC50 [41]: 5.12 µM
- EC90 [41]: > 150 µM
- activity against BK virus (in words) [41]: highly active
- CC50 (MRC-5 cells): > 100 µM
- EC50 (JC virus (JCV) [42]): 93.8 µM
- EC90 (JC virus (JCV) [42]): > 100 µM
- Activity (JC virus (JCV) [42]): NA (NA (Not Active) SI50 = 0-3.9)
- CC50 (MOLT-3 cells): 55.4 µM
- Activity [43]: HI (key: NA (Not Active) SI50 = 0-3.9; LO (Slightly Active) SI50 = 4-9.9; MOD (Moderately Active) SI50 = 10-19.9; HI (Highly Active) SI50 = ≥20)
- CC50 [43]: > 150 µM
- activity against hCMV (in words) [43]: highly active
- EC50 [43]: 0.15 µM
- EC90 [43]: > 150 µM
- EC50 (HCMV AD169): > 100 µM

Compound: CCC(CC)COC(=O)[C@H](C)N[P@](=O)(OCC1=CC(O)C(n2cnc3c(=O)[nH]c(N)nc32)O1)Oc1ccccc1 (stereo partly drawn) [AB23032]
- CC50 (JC virus (JCV) [40]): > 100 µM
- Activity [41]: NA (key: NA (Not Active) SI50 = 0-3.9; MOD (Moderately Active) SI50 = 4-9.9; HI (Highly Active) SI50 = ≥10)
- CC50 [41]: > 150 µM
- EC50 [41]: 77.2 µM
- EC90 [41]: 149 µM
- CC50 (MRC-5 cells): > 100 µM
- EC50 (JC virus (JCV) [42]): > 100 µM
- EC90 (JC virus (JCV) [42]): > 100 µM
- Activity (JC virus (JCV) [42]): NA (NA (Not Active) SI50 = 0-3.9)
- Activity [43]: NA (key: NA (Not Active) SI50 = 0-3.9; MOD (Moderately Active) SI50 = 4-9.9; HI (Highly Active) SI50 = ≥10)
- CC50 [43]: > 150 µM
- EC50 [43]: > 150 µM
- EC90 [43]: > 150 µM
- EC50 (HCMV AD169): > 100 µM

Compound: NC(=O)c1ncn([C@@H]2O[C@H](COP(=O)(O)O)[C@@H](O)[C@H]2O)n1 [RMP, Ribavirin 5′-monophosphate]
- IC50 [44]: 2.6 ± 1.8 µM

Compound: O=c1ccn(C2OC(COP(=O)(O)OP(=O)(O)OP(=O)(O)O)=CC2O)c(=O)[nH]1 (stereo not drawn) [ddhUTP, 3′-deoxy-3,4-didehydro-UTP]
- incorporation into RNA by SARS-Cov2 RdRp (in words) [45]: incorporated onto RNA as UTP analog
- substrate for POLG1 (in words) [46]: poor substrates
- chain termination of RNA synthesis (in words) [47]: caused chain termination of RNA synthesis
